Legend:
[1] = test system: HCT116; experiment: Cell proliferation assay (MTT); type: cell-based, human; conditions: for IC50: Homo sapiens, HCT-116, MTT, 72 h incubation; for Selective Index (SI) HCT116: relative to Detroit 551 normal fibroblasts
Description: (§1) At the end of the incubation, cell viability was determined by 3-(4,5-dimethylthiazol-2-yl)-2,5-diphenyl tetrazolium bromide (MTT). The MTT formazan crystals were dissolved by DMSO, and the absorbance at 570 nm using a microplate spectrophotometer (Thermo Fisher Scientific, Waltham, MA, USA).

[2] = test system: NCI-H460; experiment: Cell proliferation assay (MTT); type: cell-based, human; conditions: for IC50: Homo sapiens, NCI-H460, MTT, 72 h incubation; for Selective Index (SI) NCI-H460: relative to Detroit 551 normal fibroblasts
Description: as §1

[3] = test system: 786-O; experiment: Cell proliferation assay (MTT); type: cell-based, human; conditions: for IC50: Homo sapiens, 786-0, MTT, 72 h incubation; for Selective Index (SI) 786-O: relative to Detroit 551 normal fibroblasts
Description: as §1

[4] = target: T1, aurora A (Homo sapiens, UniProt O14965); experiment: In vitro kinase assay (HotSpot, 33P); type: biochemical; conditions: 1.0 μM compound, ATP 10.0 μM
T1 construct: purchased Reaction Biology Corporation
T1 sequence (O14965 1-403): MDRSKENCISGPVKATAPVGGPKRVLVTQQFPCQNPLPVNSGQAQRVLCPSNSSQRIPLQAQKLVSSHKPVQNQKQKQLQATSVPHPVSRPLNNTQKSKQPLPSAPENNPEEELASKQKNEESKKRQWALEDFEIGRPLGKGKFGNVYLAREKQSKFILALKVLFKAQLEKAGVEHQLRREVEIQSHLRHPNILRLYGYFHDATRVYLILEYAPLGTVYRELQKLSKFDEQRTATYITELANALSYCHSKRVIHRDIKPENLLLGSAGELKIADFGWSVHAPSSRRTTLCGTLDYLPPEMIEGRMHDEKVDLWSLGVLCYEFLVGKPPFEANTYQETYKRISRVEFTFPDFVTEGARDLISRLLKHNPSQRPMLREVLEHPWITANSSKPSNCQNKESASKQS
Description: […]. Briefly, specific kinase and substrate and required cofactors were prepared in reaction buffer. Test compounds were added into the reaction, after 20 min, a mixture of ATP (Sigma, St. Louis, MO, USA) and ^33P ATP (Perkin Elmer, Waltham, MA, USA) was added to make a final concentration of 10.0 μM. Reactions were stood at room temperature for 120 min, and spot the reactions onto P81 ion exchange filter paper (Whatman Inc., Piscataway, NJ, USA). Unbound phosphate was removed by extensive washing of filters in 0.1% phosphoric acid. Kinase activity data was reported as the percent remaining kinase activity in test compounds compared to solvent control (DMSO).

[5] = target: T2, VEGFR-2 (Homo sapiens, UniProt P35968); experiment: In vitro kinase assay (HotSpot, 33P); type: biochemical; conditions: ATP 10.0 μM; for inhibition at 0.05 µM: 50 nM compound
T2 construct: purchased Reaction Biology Corporation
Description: (§2) Briefly, specific kinase and substrate and required cofactors were prepared in reaction buffer. Test compounds were added into the reaction, after 20 min, a mixture of ATP (Sigma, St. Louis, MO, USA) and ^33P ATP (Perkin Elmer, Waltham, MA, USA) was added to make a final concentration of 10.0 μM. Reactions were stood at room temperature for 120 min, and spot the reactions onto P81 ion exchange filter paper (Whatman Inc., Piscataway, NJ, USA). Unbound phosphate was removed by extensive washing of filters in 0.1% phosphoric acid. Kinase activity data was reported as the percent remaining kinase activity in test compounds compared to solvent control (DMSO).

[6] = target: T3, PDGFRβ (Homo sapiens, UniProt P09619); experiment: In vitro kinase assay (HotSpot, 33P); type: biochemical; conditions: ATP 10.0 μM; for inhibition at 0.05 µM: 50 nM compound
T3 construct: purchased Reaction Biology Corporation
Description: as §2

[7] = test system: Detroit 551; experiment: Cell proliferation assay (MTT) on normal fibroblasts; type: cell-based; conditions: Homo sapiens, 72 h incubation, normal fibroblast cells
Description: The HCT116 (human colon cancer cells, BCRC 60349) and Detroit 551 (human normal fibroblast cells, BCRC 60118) were maintained in DMEM (Gibco, Grand Island, NY, USA) containing 10% FBS (HyClone, Logan, UT, USA). NCI-H460 (BCRC 60373) and 786-O (BCRC 60243) were maintained in RPMI 1640 (Gibco, Grand Island, NY, USA) containing 10% FBS (HyClone, Logan, UT, USA). They were incubated at 37 °C in a 5% CO2 atmosphere.
The cells incubated as above were plated at a density of 2000 cells/well (cancer cells) or 10,000 cells/well (Detroit 551) on a 96-well plate for 24 h; serial dilutions of indicated compounds were added and incubated for additional 72 h. At the end of the incubation, cell viability was determined by 3-(4,5-dimethylthiazol-2-yl)-2,5-diphenyl tetrazolium bromide (MTT). The MTT formazan crystals were dissolved by DMSO, and the absorbance at 570 nm using a microplate spectrophotometer (Thermo Fisher Scientific, Waltham, MA, USA).

[8] = test system: HUVECs; experiment: In vitro VEGF-induced tube formation assay (Kurabo angiogenesis kit); type: cell-based, human; conditions: for IC50: Homo sapiens, HUVEC, 264 h, VEGF 10 ng/mL, 11 days, read-out: IC50 of Tube Area
Description: Angiogenesis Kit (Kurabo, Neyagawa, Osaka, Japan) was used in accordance with the manufacturer’s protocols. Briefly, HUVECs and fibroblasts were co-cultured in 24-well plates with basal medium or solvent control medium (basal medium containing 1.0% DMSO) or solvent control medium containing 9, 10, 11, and 12 (0.50 μM, 0.25 μM and 0.10 μM). The medium renewals with or without agent in cultures were conducted every 3 days. After 11 days HUVECs were fixed and stained with anti-CD31 antibody in line with the manufacturer’s protocols. The tube formation area were measured using Angiogenesis Image Analyzer (Kurabo, Neyagawa, Osaka, Japan) with suaramin (70 μM) as positive control.

[9] = test system: HCT116 cells; experiment: Cell cycle profile by image cytometry; type: cell-based, human; conditions: 24 h
Description: Cell cycle profiles of HCT116 cells were determined with an NC-3000 image cytometer (ChemoMetec, Allerod, Denmark) in accordance with manufacturer’s protocol. Briefly, cells were seeded at 200,000 cells/well on a 6-well plate for 24 h. […] After incubation for 24 h, 100,000 cells were harvested and centrifuged for 5 min at 400 g at room temperature, washed once with PBS […] and resuspended with 50 μL of lysis buffer (ChemoMetec, Allerod, Denmark) containing 10 μg/mL of 2-(4-amidinophenyl)-1H-indole-6-carboxamidine (DAPI, ChemoMetec, Allerod, Denmark). The cells were incubated at 37 °C for 5 min, 50 μL of stabilization buffer (ChemoMetec, Allerod, Denmark) was added to the solution, and the cellular fluorescence was measured with an NC-3000 image cytometer using NC-SlideA8 (ChemoMetec, Allerod, Denmark). The NC-3000 software (ChemoMetec, Allerod, Denmark) was used for image acquisition, image analysis and quantification and data visualization.

[10] = test system: Detroit 551, HCT116, NCI-H460 and 786-O cell lines; experiment: Acute cytotoxicity (WST-8, Cell-Counting-Kit-8); type: cell-based, human; conditions: 10 μM, 6 h, WST-8, all tested cell lines
Description: Cells were seeded at 5000 cells/well on a 96-well plate for 24 h. The indicated compounds in different concentration (100 μL) were added to cells. Post 6 h, old medium was aspirated, and cells were washed three times with PBS. WST-8 (Dojindo, Rockville, MD, USA) (10 µL) was added to each well, and the absorbance of the plate was recorded at 450 nm on a microplate spectrophotometer (Thermo Fisher Scientific, Waltham, MA, USA).

T2 sequence (P35968 20-1356): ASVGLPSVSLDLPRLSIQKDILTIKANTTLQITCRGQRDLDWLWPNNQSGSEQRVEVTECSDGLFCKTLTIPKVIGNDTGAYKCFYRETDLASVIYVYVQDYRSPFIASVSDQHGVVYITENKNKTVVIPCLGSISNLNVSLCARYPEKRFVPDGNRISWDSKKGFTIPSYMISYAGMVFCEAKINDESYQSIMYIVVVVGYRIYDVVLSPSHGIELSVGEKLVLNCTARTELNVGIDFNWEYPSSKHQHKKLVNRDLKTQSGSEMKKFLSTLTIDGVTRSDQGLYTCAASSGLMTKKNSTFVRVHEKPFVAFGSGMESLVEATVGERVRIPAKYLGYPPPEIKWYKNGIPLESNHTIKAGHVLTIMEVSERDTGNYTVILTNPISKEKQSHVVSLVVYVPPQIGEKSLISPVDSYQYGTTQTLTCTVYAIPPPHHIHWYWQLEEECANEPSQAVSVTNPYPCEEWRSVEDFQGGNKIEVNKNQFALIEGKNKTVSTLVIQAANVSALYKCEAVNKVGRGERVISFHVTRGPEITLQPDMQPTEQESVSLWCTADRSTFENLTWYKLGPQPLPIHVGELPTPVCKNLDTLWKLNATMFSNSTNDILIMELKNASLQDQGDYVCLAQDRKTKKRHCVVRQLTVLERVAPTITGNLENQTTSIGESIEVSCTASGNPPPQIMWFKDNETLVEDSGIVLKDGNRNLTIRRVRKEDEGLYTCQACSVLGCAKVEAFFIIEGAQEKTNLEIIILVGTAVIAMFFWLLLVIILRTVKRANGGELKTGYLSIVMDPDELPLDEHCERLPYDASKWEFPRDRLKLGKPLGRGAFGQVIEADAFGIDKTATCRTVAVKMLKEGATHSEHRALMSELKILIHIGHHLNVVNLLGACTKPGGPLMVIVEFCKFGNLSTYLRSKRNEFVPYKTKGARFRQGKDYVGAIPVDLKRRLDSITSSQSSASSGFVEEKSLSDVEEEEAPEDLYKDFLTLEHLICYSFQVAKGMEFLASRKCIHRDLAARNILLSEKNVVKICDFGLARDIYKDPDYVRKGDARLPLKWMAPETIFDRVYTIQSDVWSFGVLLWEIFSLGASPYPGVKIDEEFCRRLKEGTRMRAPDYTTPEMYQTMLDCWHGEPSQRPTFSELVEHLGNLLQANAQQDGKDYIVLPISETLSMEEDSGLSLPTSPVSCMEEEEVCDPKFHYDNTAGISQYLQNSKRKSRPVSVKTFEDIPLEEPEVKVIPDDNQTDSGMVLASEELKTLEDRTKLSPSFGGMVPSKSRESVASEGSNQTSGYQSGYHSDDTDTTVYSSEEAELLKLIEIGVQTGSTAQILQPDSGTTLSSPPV
T3 sequence (P09619 33-1106): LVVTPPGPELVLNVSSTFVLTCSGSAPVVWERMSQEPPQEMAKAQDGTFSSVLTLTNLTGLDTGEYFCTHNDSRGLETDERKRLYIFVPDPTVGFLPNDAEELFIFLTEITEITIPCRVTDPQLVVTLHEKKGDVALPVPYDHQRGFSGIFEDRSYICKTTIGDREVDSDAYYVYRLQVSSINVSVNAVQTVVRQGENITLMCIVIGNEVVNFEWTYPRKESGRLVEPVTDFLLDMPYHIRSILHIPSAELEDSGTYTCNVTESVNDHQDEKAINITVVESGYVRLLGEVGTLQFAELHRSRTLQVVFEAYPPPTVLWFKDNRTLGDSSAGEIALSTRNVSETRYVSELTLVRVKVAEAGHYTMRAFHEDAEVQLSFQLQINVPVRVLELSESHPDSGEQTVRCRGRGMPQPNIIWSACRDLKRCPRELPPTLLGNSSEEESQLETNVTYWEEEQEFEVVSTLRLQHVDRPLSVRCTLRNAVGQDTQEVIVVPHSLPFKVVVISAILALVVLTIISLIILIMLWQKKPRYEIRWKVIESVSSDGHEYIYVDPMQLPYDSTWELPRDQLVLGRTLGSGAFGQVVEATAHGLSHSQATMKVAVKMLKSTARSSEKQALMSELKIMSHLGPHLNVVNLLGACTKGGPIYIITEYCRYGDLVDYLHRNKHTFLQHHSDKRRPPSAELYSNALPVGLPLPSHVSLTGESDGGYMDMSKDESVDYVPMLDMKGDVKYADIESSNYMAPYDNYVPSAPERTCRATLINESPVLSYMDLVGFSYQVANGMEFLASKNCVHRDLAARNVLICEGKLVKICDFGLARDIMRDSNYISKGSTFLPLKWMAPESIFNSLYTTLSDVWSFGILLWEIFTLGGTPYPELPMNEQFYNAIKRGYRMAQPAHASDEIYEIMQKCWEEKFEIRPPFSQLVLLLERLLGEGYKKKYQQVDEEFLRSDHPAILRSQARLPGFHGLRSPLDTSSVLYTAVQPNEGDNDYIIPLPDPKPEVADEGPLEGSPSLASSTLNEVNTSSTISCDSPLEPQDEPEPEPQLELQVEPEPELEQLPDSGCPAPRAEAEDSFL

Structure (SMILES)	IC50 [1] [nM]	Selective Index (SI) HCT116 [1]	IC50 [2] [nM]	IC50 [3] [nM]	inhibition at 1 µM [4] [%]	inhibition at 0.05 µM [5] [%]	IC50 [5] [nM]	inhibition at 0.05 µM [6] [%]	IC50 [6] [nM]	melting point [°C]	IC50 [7] [nM]	IC50 [8] [nM]	cell cycle profile effect ([9]; 5.0 μM)	acute cellular toxicity [10]	Selective Index (SI) NCI-H460 [2]	Selective Index (SI) 786-O [3]	tube formation IC50, fold stronger than sunitinib ([8]; vs sunitinib)	cell cycle profile effect ([9]; 1.0 μM)	anti-proliferation potency against HCT116, fold stronger than 8 ([1]; vs 8 (C(5)-H)) [fold]	anti-proliferation potency against HCT116, fold stronger than sunitinib ([1]; vs sunitinib)
CCN(CC)CCN1Cc2[nH]c(/C=C3\C(=O)Nc4ccccc43)c(C)c2C1=O [Compound 8, (Z)-3-((5-(2-(Diethylamino)ethyl)-3-methyl-4-oxo-1,4,5,6-tetrahydropyrrolo[3,4-b]pyrrol-2-yl)methylene)indolin-2-one]	4250 ± 1880	>2.35	> 10000	> 10000	95.9	56	30.2	64	22.4	167 to 168	> 10000	310 ± 15	increase phase of polyploid							
CCN(CC)CCNC(=O)c1c(C)[nH]c(/C=C2\C(=O)Nc3ccc(F)cc32)c1C [Sunitinib, sunitinib, reference compound]	3420 ± 570		6230 ± 570	6270 ± 670				44				387 ± 16	G0/G1 cell cycle arrest	nearly free from acute cellular toxicity						
CCN(CC)CCN1Cc2[nH]c(/C=C3\C(=O)Nc4ccc(Br)cc43)c(C)c2C1=O [Compound 11, (Z)-5-Bromo-3-((5-(2-(diethylamino)ethyl)-3-methyl-4-oxo-1,4,5,6-tetrahydropyrrolo[3,4-b]pyrrol-2-yl)methylene)indolin-2-one]	1050 ± 180	>9.52	6570 ± 1640	7060 ± 300	93.1	64	24.7	68	16.1	266 to 267	> 10000	179 ± 29			>1.52	>1.42	approximately 2 fold	increase phase of polyploid		
CCN(CC)CCN1Cc2[nH]c(/C=C3\C(=O)Nc4ccc(Cl)cc43)c(C)c2C1=O [Compound 10, (Z)-5-Chloro-3-((5-(2-(diethylamino)ethyl)-3-methyl-4-oxo-1,4,5,6-tetrahydropyrrolo[3,4-b]pyrrol-2-yl)methylene)indolin-2-one]	3090 ± 700	>3.23	> 10000	7300 ± 1200	93.7	58	35	64	24.9	252 to 253	> 10000	299 ± 70	G0/G1 cell cycle arrest			>1.37				
CCN(CC)CCN1Cc2[nH]c(/C=C3\C(=O)Nc4ccc(I)cc43)c(C)c2C1=O [Compound 12, (Z)-3-((5-(2-(Diethylamino)ethyl)-3-methyl-4-oxo-1,4,5,6-tetrahydropyrrolo[3,4-b]pyrrol-2-yl)methylene)-5-iodoindolin-2-one]	420 ± 160	21.93	2950 ± 830	7760 ± 290	92.9	58	35.1	62	29.3	267 to 268	9210 ± 1610	313 ± 37			3.12	1.19		G0/G1 cell cycle arrest	~10	approximately 8 fold
CCN(CC)CCN1Cc2[nH]c(/C=C3\C(=O)Nc4ccc(F)cc43)c(C)c2C1=O [Compound 9, (Z)-3-((5-(2-(Diethylamino)ethyl)-3-methyl-4-oxo-1,4,5,6-tetrahydropyrrolo[3,4-b]pyrrol-2-yl)methylene)-5-fluoroindolin-2-one]	2940 ± 660	>3.4	> 10000	> 10000	93.1	35	111	36	97.5	245 to 246	> 10000	367 ± 16	G0/G1 cell cycle arrest							

Reference: article PMC6152791, “Synthesis and Evaluation of Novel 2-Pyrrolidone-Fused (2-Oxoindolin-3-ylidene)methylpyrrole Derivatives as Potential Multi-Target Tyrosine Kinase Receptor Inhibitors” (Molecules : A Journal of Synthetic Chemistry and Natural …, 2017)
